Where two headings read alike, the source gives them in different places.
Tests used:
[1] = target: T1, pDNA-PK ser2056 induction in HCT116 spheroids (Homo sapiens, UniProt P78527); test: Multicellular tumour spheroid + radiation, pDNA-PK inhibition, HCT116; assay type: cell-based; conditions: 20 Gy
T1 construct: endogenous in cells; host or cells: HCT116 multicellular tumour spheroids
Method in brief: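 HCT116 spheroids (~0.5 mm) in MEM/10% FBS/10 mM glucose, 20% O2, 37 °C, pre-incubated 1 h with compound (10 or 5 μM down to 3.5 nM), irradiated 20 Gy, incubated 2 h more. Cryosections immunostained for pDNA-PK ser2056; EC50 (μM) for 50% reduction of radiation-induced pDNA-PK.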

[2] = target: T2, pDNA-PK ser2056 induction in FaDU spheroids (Homo sapiens, UniProt P78527); test: Multicellular tumour spheroid + radiation, pDNA-PK inhibition, FaDU; assay type: cell-based; conditions: 20 Gy
T2 construct: host or cells: FaDu
Description: (§1) Multicellular tumour spheroids determination of compound inhibition of pDNA-PK induction following radiation. Tumour spheroids were grown to approximately 0.5 mm in diameter and irradiated with 20 Gy in combination with inhibitor test compounds to determine their potency. Inhibitor concentration for 50% reduction in pDNA-PK induction (IC50) was determined via immunohistochemical staining in spheroid cryosections taken 2 hours following radiation. For cell survival endpoint 8 Gy radiation was used and 3 hours following radiation spheroids were dissociated, counted and plated for colony forming endpoint.
Spheroid+radiation pDNA-PK. Radiation: 20 Gy. Drug: serial dilution 5 or 10 μM down to 3.5 nM (11 wells). Spheroids: 3-6 spheroids per well (300-500 μm diameter). 20% O2 and 5% CO2. 96 well plate format. Endpoint: fluorescent immunostain pDNA-PK ser2056 and image on microscope. Analysis: determine EC50 concentrations that decreases pDNA-PK induction […] after irradiation.
(§2) Multicellular tumour spheroids were used to determine potency of test compounds in a 3D tissue environment using inhibition of pDNA-PK induction following radiation or cell survival as the endpoint. For the pDNA-PK endpoint HCT116 or FaDU tumour spheroids were grown to approximately 0.5 mm in diameter and irradiated with 20 Gy in combination with inhibitor test compounds to determine their potency. Experiments were carried out in 96 well plates containing 0.7 mls of MEM media containing 10% FBS and 10 mM glucose under 20% O2 & 5% CO2 at 37° C. Following dilution of compounds 1:1000 from DMSO stocks, compounds were serially diluted from 10 μM down to 3.5 nM and 5-10 spheroids added. 96 well plates were constantly stirred to avoid spheroids settling during the course of the experiment. The inhibitor concentration for 50% reduction in pDNA-PK induction (EC50) was determined via immunohistochemical staining in spheroid cryosections taken 2 hours following radiation using anti-pDNA-PK (ser 2056) and fixed immediately in formalin following sectioning. For cell survival endpoint 8 Gy radiation was used and, 3 hours following radiation, spheroids were dissociated, counted and plated for colony forming endpoint. Data presented in the table compound potency as EC50 [μM].

[3] = system: HCT116 spheroids; test: Spheroid + radiation colony forming cell survival assay (SF), HCT116; assay type: cell-based; conditions: Homo sapiens, HCT-116, 8 Gy
Description: as §1
Spheroid+radiation colony forming cell survival assay (SF). Radiation 8 Gy. Drug: serial dilution 5 μM down to 10 nM (12 wells×2 repeat). Spheroids: 5-10 spheroids per well ([…]). HCT116. 5% O2 and 5% CO2. 96 well pate format for assay. Protocol: pre incubate 1 hour with drug, irradiate 8 Gy, post incubate 3 hrs with drug, dissociate spheroids and count cells and plate for colony forming assay. Endpoint: wait 4-7 days and count colonies. Analysis: determine EC50 concentration that increase cell kill by 50% over radiation alone.
as §2

[4] = target: T3, DNA-PK (Homo sapiens, UniProt P78527); test: DNA-PK Assay for Biochemical Enzymatic Inhibition (ADP Glo Kinase assay); conditions: Table 2
T3 construct: purchased Invitrogen PR9107A
Method in brief: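 Human DNA-PK (25 ng) preincubated 15 min with compounds (ten three-fold dilutions) in HEPES pH 7.5, MgCl2, KCl, calf thymus DNA buffer, then substrate 434.4 μM and ATP 64.4 μM (final) for 60 min at room temperature. ADP-Glo luminescence; percent inhibition fitted by four-parameter regression for IC50.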

[5] = system: FaDu cell line; test: Prodrug activation in hypoxic stirred tumour cell suspensions; assay type: in vitro ADME; conditions: 10 μM, 4 hours
Description: Prodrug compounds were assayed to determine their stability and rate of activation in stirred cell suspensions under 0.2 vs 5% oxygen. Compounds were diluted 1:1000 from DMSO stocks to 10 μM final concentration in tumour cell suspensions (1% by cell volume) in MEM media containing 10% FBS, 10 mM glucose & 3.7 g/L sodium bicarbonate. Cell lines assayed included A253, A549, Detroit562, FaDu, HCT116, HEP G2, HT29, SCC25, SCC9, SiHa & TC32. Compounds and cells were then incubated for 4 hours under constant mixing at 37° C. under 5% CO2 and either 0.2 or 5% O2. Following the incubation period cellular activation of the compounds was assayed via MeOH extraction and HPLC quantification.

[6] = system: pH2AX induction in HCT116 ATM−/− multicellular tumour spheroids; test: Prodrug radiation sensitization in multicellular tumour spheroids (pH2AX induction following radiation); assay type: cell-based
Description: Prodrug compounds were assayed to determine their potency in 3D multicellular spheroids in media maintained under 20% vs […]. Multicellular tumour spheroids were grown to approximately 0.5 mm in diameter and irradiated with 20 Gy in combination with inhibitor test compounds to determine their potency using HCT116 and FaDu cell lines. Experiments were carried out in 96 well plates containing 0.7 mls of MEM media containing 10% FBS and 10 mM glucose under […] at 37° C. Following dilution of compounds 1:1000 from DMSO stocks, compounds were serially diluted from 10 μM down to 3.5 nM and 5-10 spheroids added. 96 well plates were constantly stirred to avoid spheroids settling during the course of the experiment. Endpoints were pDNA-PK (ser 2056) or pH2AX (ser 139) status in spheroid cryosections taken 1 or 2 hours following radiation and fixed immediately in formalin. Using tumour cell lines deficient in ATM improved the assay signal to noise and gH2AX readout. Using this assay prodrug activity could be compared in the more oxygenated outer spheroid layers versus less oxygenated hypoxic central cell layers.

[7] = target: T4, DNA-PK phosphorylation at Serine 2056 (Homo sapiens, UniProt P78527); test: Cellular Assay for Inhibition of DNA-PK Phosphorylation at Serine 2056 (FaDu cells, neocarzinostatin, sandwich ELISA); assay type: cell-based; conditions: Table 2
T4 construct: host or cells: FaDu
Method in brief: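 FaDu cells were pretreated with compound (0.3% DMSO) for 1 h, then exposed to neocarzinostatin at 1 μg/mL final for 2 h to induce DSBs. Protein-normalized lysates were assayed by MSD sandwich ELISA for total and pSer2056 DNA-PK. IC50 came from variable-slope fits of % inhibition relative to DMSO and NCS controls.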

[8] = Microsomal stability assay, human liver microsomes; assay type: in vitro ADME; conditions: for Microsomal Stability (human) % rem. 60 min: Example 11; for microsomal CLint at 0.1 uM: both sexes, human, liver microsomes, pH 7.4, Example 11
Description: Samples were then mixed and centrifuged. Supernatants were used for HPLC-MS/MS analysis. […] Peak areas corresponding to the test compound were recorded.

[9] = Homo sapiens, HCT-116, 20 Gy, 5% O2, inner layers, read-out: Prodrug 5% O2 Inner layers EC50
[10] = Homo sapiens, HCT-116, 20 Gy, 5% O2, outer layers, read-out: Prodrug 5% O2 Outer layers EC50
[11] = Homo sapiens, HCT-116, 20 Gy, 20% O2, outer layers, read-out: Prodrug 20% O2 Outer layers EC50
[12] = 20 Gy, 5% O2, inner layers, read-out: Prodrug 5% O2 Inner layers EC50
[13] = 20 Gy, 5% O2, outer layers, read-out: Prodrug 5% O2 Outer layers EC50
[14] = 20 Gy, 20% O2, outer layers, read-out: Prodrug 20% O2 Outer layers EC50
[15] = value of the effector of the listed prodrug, 5% O2, inner layers, read-out: Effector 5% O2 Inner layers EC50

Compound | Fraction of prodrug converted to active form, Hypoxic 0.2% O2 [5] | Fraction of prodrug converted to active form, Oxic 5% O2 [5] | EC50 [6, 9] [nM] | EC50 [6, 10] [nM] | EC50 [6, 11] [nM] | further results
Brc1cnc2cc(N3CCOCC3)nc(O[C@H]3CC[C@@H](n4ccnc4)CC3)c2c1 [Compound 10, 4-(5-(((1s,4s)-4-(1H-imidazol-1-yl)cyclohexyl)oxy)-3-bromo-1,6-naphthyridin-7-yl)morpholine] | – | – | – | – | – | EC50 ([1]; Example 7, spheroid, cell line HCT115 [sic], 20% O2, read-out: EC50 (pDNA-PK inhibition, immunohistochemical endpoint)): 1000 to 10000 nM; EC50 ([1]; Example 8, spheroid, read-out: Cell line: HCT116 Immunohistochemical endpoint pDNA-PK inhibition EC50): 1000 to 10000 nM; EC50 ([1]; Example 9 Study 2, 20% O2, read-out: Spheroid Cell line: HCT116 Immunohistochemical endpoint pDNA-PK inhibition EC50): 1000 to 10000 nM; EC50 ([2]; Example 8, spheroid, read-out: Cell line: FaDU Immunohistochemical endpoint pDNA-PK inhibition EC50): 500 to 1000 nM; EC50 ([2]; Example 9 Study 2, 20% O2, read-out: Spheroid Cell line: FaDU Immunohistochemical endpoint pDNA-PK inhibition EC50): 500 to 1000 nM; EC50 ([3]; Example 8, spheroid, read-out: Cell line: HCT116 Colony forming endpoint Surviving Fraction EC50): 500 to 1000 nM; EC50 ([3]; Example 9 Study 2, read-out: Spheroid Cell line: HCT116 Colony forming endpoint Surviving Fraction EC50): 500 to 1000 nM
Cn1c(CN(c2cnc3cc(N4CCOCC4)nc(OC4CCC(Nc5ncccn5)CC4)c3c2)S(C)(=O)=O)cnc1[N+](=O)[O-] (centres unmarked) [LFA008, N-[(3-Methyl-2-nitro-imidazol-4-yl)methyl]-N-[7-morpholino-5-[4-(pyrimidin-2-ylamino)cyclohexoxy]-1,6-naphthyridin-3-yl]methanesulfonamide] | B (B is 0.05 to 0.15) | D (D is 0 to 0.02) | 10 to 500 | 500 to 1000 | 1000 to 10000 | IC50 [4]: 10 to 150 nM
Cn1c(CN(c2cnc3cc(N4CCOCC4)nc(OC4CCC(n5ccnc5)CC4)c3c2)S(C)(=O)=O)cnc1[N+](=O)[O-] (centres unmarked) [LFA018, N-[5-(4-Imidazol-1-ylcyclohexoxy)-7-morpholino-1,6-naphthyridin-3-yl]-N-[(3-methyl-2-nitro-imidazol-4-yl)methyl]methanesulfonamide] | B (B is 0.05 to 0.15) | D (D is 0 to 0.02) | 1000 to 10000 | 1000 to 10000 | 1000 to 10000 | IC50 [4]: 10 to 150 nM; IC50 [7]: 10000 to 30000 nM
Cn1c(CN(c2cnc3cc(N4CCOCC4)nc(OC4CCC(Nc5ncc(C(F)(F)F)cn5)CC4)c3c2)S(C)(=O)=O)cnc1[N+](=O)[O-] (centres unmarked) [LFA023, N-[(3-Methyl-2-nitro-imidazol-4-yl)methyl]-N-[7-morpholino-5-[4-[[5-(trifluoromethyl)pyrimidin-2-yl]amino]cyclohexoxy]-1,6-naphthyridin-3-yl]methanesulfonamide] | B (B is 0.05 to 0.15) | D (D is 0 to 0.02) | 500 to 1000 | 1000 to 10000 | 1000 to 10000 | Microsomal Stability (human) % rem. 60 min [8]: F (% remaining = 25-50%); microsomal CLint at 0.1 uM [8]: < 116 µL/min/mg
Cn1c(CN(c2cnc3cc(N4CCOCC4)nc(OC4CCC(Nc5ncc(C#N)cn5)CC4)c3c2)S(C)(=O)=O)cnc1[N+](=O)[O-] (centres unmarked) [LFA026, N-[5-[4-[(5-Cyanopyrimidin-2-yl)amino]cyclohexoxy]-7-morpholino-1,6-naphthyridin-3-yl]-N-[(3-methyl-2-nitro-imidazol-4-yl)methyl]methanesulfonamide] | B (B is 0.05 to 0.15) | D (D is 0 to 0.02) | 10 to 500 | 1000 to 10000 | 1000 to 10000 | Microsomal Stability (human) % rem. 60 min [8]: E (% remaining = 0-25%); microsomal CLint at 0.1 uM [8]: > 116 µL/min/mg
Cn1c(CN(c2cnc3cc(N4CCOCC4)nc(OC4CCC(Nc5ccn6nccc6n5)CC4)c3c2)S(C)(=O)=O)cnc1[N+](=O)[O-] (centres unmarked) [LFA035, N-[(3-Methyl-2-nitro-imidazol-4-yl)methyl]-N-[7-morpholino-5-[4-(pyrazolo[1,5-a]pyrimidin-5-ylamino)cyclohexoxy]-1,6-naphthyridin-3-yl]methanesulfonamide] | B (B is 0.05 to 0.15) | D (D is 0 to 0.02) | 10 to 500 | 1000 to 10000 | 1000 to 10000 | –
CC(c1cnc([N+](=O)[O-])n1C)N(c1cnc2cc(N3CCOCC3)nc(OC3CCC(Nc4ccn5nccc5n4)CC3)c2c1)S(C)(=O)=O (centres unmarked) [LFA036, N-[1-(3-Methyl-2-nitro-imidazol-4-yl)ethyl]-N-[7-morpholino-5-[4-(pyrazolo[1,5-a]pyrimidin-5-ylamino)cyclohexoxy]-1,6-naphthyridin-3-yl]methanesulfonamide] | A (A is 0.15 to 1) | D (D is 0 to 0.02) | 10 to 500 | 500 to 1000 | 10000 to 100000 | –
Cn1c(Cn2cnc(-c3cnc4cc(N5CCOCC5)nc(OC5CCC(Nc6ncccn6)CC5)c4c3)n2)cnc1[N+](=O)[O-] (centres unmarked) [LFA138] | D (D is 0 to 0.02) | D (D is 0 to 0.02) | – | – | – | EC50 [6, 12]: 1000 to 10000 nM; EC50 [6, 13]: 1000 to 10000 nM; EC50 [6, 14]: 1000 to 10000 nM; EC50 [6, 15]: 10 to 500 nM
Cn1c(Cn2ncnc2-c2cnc3cc(N4CCOCC4)nc(O[C@H]4CC[C@@H](Nc5ncccn5)CC4)c3c2)cnc1[N+](=O)[O-] [LFA139] | B (B is 0.05 to 0.15) | D (D is 0 to 0.02) | – | – | – | EC50 [6, 12]: 500 to 1000 nM; EC50 [6, 13]: 500 to 1000 nM; EC50 [6, 14]: 1000 to 10000 nM; EC50 [6, 15]: 10 to 500 nM

— patent US20240246960A1 (adMare Therapeutics Society, priority 2021, published 2024)
